Data published in the NIST ThermoML archive (doi:10.1021/acs.jced.7b00900).
Numbers after ± are expanded uncertainties.

Assay: of the first substance listed, at infinite dilution; xn = mol fraction of the nth substance listed
Details: 298.15 K; 100 kPa; Liquid; isoperibol calorimeter; x1 = 0

Row | SMILES | partial molar enthalpy [kcal/mol]
1 | CCCCOCCCN [3-butoxy-1-propanamine] + O | -7.294 ± 0.0574
2 | CCOCCCN [3-ethoxy-1-propanamine] + O | -6.582 ± 0.0526
